According to patent US10398689B2, “Benzopiperidine derivative, preparation method thereof and medical use thereof” (Jiangsu Hengrui Medicine Co., Ltd., priority 2015, dated 2019):

Legend:
ERα = molecular target: T1, ERα (Homo sapiens, UniProt P03372); experiment: Degradation effect on ERα in MCF-7 cells (ERα Duoset ELISA); assay type: cell-based; conditions: MCF7; compound at 3 μM, relative to positive control AZD-9496 at 3 μM set to 100%
T1 construct: host or cells: MCF-7
T1 sequence (P03372 1-595): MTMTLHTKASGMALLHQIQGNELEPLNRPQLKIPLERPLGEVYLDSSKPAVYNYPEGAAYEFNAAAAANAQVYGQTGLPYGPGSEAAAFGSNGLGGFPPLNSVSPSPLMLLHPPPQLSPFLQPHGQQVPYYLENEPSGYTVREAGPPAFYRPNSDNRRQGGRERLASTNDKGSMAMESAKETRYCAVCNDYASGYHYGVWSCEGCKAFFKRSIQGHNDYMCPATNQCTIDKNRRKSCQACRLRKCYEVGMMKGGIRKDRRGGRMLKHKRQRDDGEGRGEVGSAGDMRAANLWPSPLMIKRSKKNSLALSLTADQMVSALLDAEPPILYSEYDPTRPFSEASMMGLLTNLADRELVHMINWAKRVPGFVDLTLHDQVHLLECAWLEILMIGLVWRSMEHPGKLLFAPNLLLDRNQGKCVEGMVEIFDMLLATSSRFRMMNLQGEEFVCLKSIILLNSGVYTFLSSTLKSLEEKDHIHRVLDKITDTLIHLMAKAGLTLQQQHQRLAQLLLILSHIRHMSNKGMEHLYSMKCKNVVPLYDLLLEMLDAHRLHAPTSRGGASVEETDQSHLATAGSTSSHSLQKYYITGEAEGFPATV
Description: In order to determine the degradation effect on ER induced by the compound of present invention, the following method was used to determine the degradation effect of the compounds of the present invention on ER.
MCF-7 cell line (TChu 74, Cell Bank of Chinese Academy of Sciences typical culture preservation Committee)
ERα Duoset Kit (#DYC5715E, R&D System)
MCF-7 cells well incubated in DMEM/F-12 medium containing 10% FBS.
On the first day of the experiment, MCF-7 cells were resuspended in DMEM/F-12 medium containing 10% FBS treated by activated carbon, then inoculated into a 48-well plate with a density of 50,000 cells/well and incubated for 22-24 hours.
On the second day of the experiment, the test compound was diluted with medium and added to a 48-well plate. The ERα-capture antibody was diluted to 1 μg/ml with PBS, and added with 100 μl/well to a 96-well plate at 100 μl/well. The plate was sealed and coated overnight at room temperature.
On the third day of the experiment, the coated 96-well plate was washed twice with PBS, added with a sealing solution (1% BSA in PBS) at 110 μl/well and sealed for 1 hour at room temperature. The 48-well plate was washed once and the residual liquid was removed. Then, 60 μl of lysis buffer (6 M urea, 1 mM EDTA, 0.5% Triton X-100, 1 mM PMSF, Protease Inhibitor cocktail) was added to each well. After lysis on ice for 15 minutes, the diluent (1 mM EDTA, 0.5% TritonX-100 dissolved in PBS) was added. The cell-diluted lysate was transferred to a 96-well plate at 100 μl/well, then the plate was incubated at room temperature for 2 hours. The diluted primary antibody was added after the plate was washed 4 times with a washing liquid (PBST). After incubation for 1 hour, the 96-well plate was washed 4 times, and the second antibody was added, then the plate was incubated for 30 minutes. After the plate was washed with a washing liquid, TMB chromogenic solution was added and incubated for 15 minutes. The reaction was stopped by the addition of 1 M H2SO4, then the light absorption at a wavelength of 450 nm was read. The degradation effect of the compound AZD9496 at 3 μM was set to 100%, the Emax of other compounds=(ODnegative control−ODcompound 3 μM)/(ODnegative control−ODAZD9496 3 μM)×100%, and the negative control was a well with DMSO.

ER (estrogen receptor) = molecular target: T2, ER (estrogen receptor) (Homo sapiens, UniProt P03372); experiment: Inhibition of the binding of estrogen (E) to estrogen receptor (ER), MCF-7/ERE-luciferase reporter cells; assay type: cell-based; conditions: MCF-7/ERE-luciferase cells, 0.1 nM estradiol, 24 hours, chemiluminescence; read-out: IC50 value of inhibition effect on the binding of E to ER
T2 construct: MCF-7/ERE-luciferase monoclonal cells were selected by transfection of MCF-7; host or cells: MCF-7/ERE-luciferase (only the ERE-luciferase reporter was transfected)
T2 sequence (P03372 1-595): T1 sequence (P03372 1-595)
Outline: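 MCF-7 cells stably carrying an ERE-luciferase reporter, grown in charcoal-stripped FBS medium, were treated with compound plus 0.1 nM estradiol for 24 h at 37 °C. Luciferase chemiluminescence was then read and plotted against log compound concentration to derive IC50.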

Emax at 3 µM (ERα) | IC50 (ER (estrogen receptor)) | SMILES
115% | 2.11 nM | CCc1ccc(N2C(C)Cc3cc(-c4cnn(C)c4)ccc3C2c2ccc(/C=C/C(=O)O)cc2)cc1 [Example 1, (E)-3-(4-((1R,3R/1S,3S)-2-(4-Ethylphenyl)-3-methyl-6-(1-methyl-1H-pyrazol-4-yl)-1,2,3,4-tetrahydroisoquinolin-1-yl)phenyl)acrylic acid]
118% | 1.79 nM | CCn1cc(-c2ccc3c(c2)CC(C)N(c2ccc(C(C)C)cc2)C3c2ccc(/C=C/C(=O)O)cc2)cn1 [Example 7, (E)-3-(4-((1R,3R/1S,3S)-6-(1-Ethyl-1H-pyrazol-4-yl)-2-(4-isopropylphenyl)-3-methyl-1,2,3,4-tetrahydroisoquinolin-1-yl)phenyl)acrylic acid]
129% | 0.39 nM | CCn1cc(-c2ccc3c(c2)C[C@@H](C)N(c2ccc(C(C)C)cc2)[C@@H]3c2ccc(/C=C/C(=O)O)cc2)cn1 [Example 8, (E)-3-(4-((1R,3R)-6-(1-Ethyl-1H-pyrazol-4-yl)-2-(4-isopropylphenyl)-3-methyl-1,2,3,4-tetrahydroisoquinolin-1-yl)phenyl)acrylic acid]
134% | 0.32 nM | C[C@@H]1Cc2cc(-c3cnn(C)c3)ccc2[C@@H](c2ccc(/C=C/C(=O)O)cc2)N1c1ccc(C2CC2)cc1 [Example 11, (E)-3-(4-((1R,3R)-2-(4-Cyclopropylphenyl)-3-methyl-6-(1-methyl-1H-pyrazol-4-yl)-1,2,3,4-tetrahydroisoquinolin-1-yl)phenyl)acrylic acid]
147% | 0.25 nM | CCn1cc(-c2ccc3c(c2)C[C@@H](C)N(c2ccc(C4CC4)cc2)[C@@H]3c2ccc(/C=C/C(=O)O)cc2)cn1 [Example 14, (E)-3-(4-((1R,3R)-2-(4-Cyclopropylphenyl)-6-(1-ethyl-1H-pyrazol-4-yl)-3-methyl-1,2,3,4-tetrahydroisoquinolin-1-yl)phenyl)acrylic acid]
112% | 0.52 nM | CC(C)c1ccc(N2[C@H](c3ccc(/C=C/C(=O)O)cc3)c3ccc(-c4cnn(C)c4)cc3C[C@H]2C)cc1 [Example 42, (E)-3-(4-((1R,3R)-2-(4-Isopropylphenyl)-3-methyl-6-(1-methyl-1H-pyrazol-4-yl)-1,2,3,4-tetrahydroisoquinolin-1-yl)phenyl)acrylic acid]
